Test results as given in patent US10711278B2, “Genetically altered alfalfa producing clovamide and/or related hydroxycinnamoyl amides” (The United States of America, as represented by the …, priority 2015, dated 2020).
Positions count from the first letter of the chain named.

B1: hydroxycinnamoyl-CoA:L-DOPA/tyrosine hydroxycinnamoyl transferase 1 (protein)
chain: MVTIIASHTVIPEEPTPQGPFWLSDMDQVVRIRDVPTLYIYKTPKKNQENKNIVETFKNSLSKILVHYYPIAGRLCYIEGGRLELNLNAKGAILVEAETEKTMNDYGDFSHFDTIKELVPMIDYNQPIEEIPNFVVQLTNFKNNEGFAIGVAFLHPLSDGLGAIKFINSWAKIARGETLEANELPFLDRKLLKFSHTPLEPRFEHLELKPLPLILGRKDASEEKEKKTSATLLKLSSEQVDKLKKKANEEDVLGIQKKEYSRPYSKFEVISAHIWRCASKARELEDNQESVIRFIADVKNRMIPPLPKNYFGNALTQTATKGYIGEITSKPLGYVAQKIREATELINDEYIRSQIDVVRSFEHLDDARKMFIGEKARYFGNPNFNLTSWLSMPVYEADFGWGKPNYFGLADVSPHDRAVILLSPDDDGSVLVSFHFQIAHMELFNKYFYEEI
modifications: Trifolium pratense
B2: hydroxycinnamoyl-CoA:L-DOPA/tyrosine hydroxycinnamoyl transferase 2 (protein)
chain: B1 chain with N140K, I255V, E285K, I346V, F436L
modifications: Trifolium pratense

Legend:
[1] = cited from earlier work
[2] = In-vitro hydroxycinnamoyl-CoA transferase activity of soluble E. coli extracts expressing HDT1 or HDT2, HPLC of products; assay type: biochemical, Trifolium pratense; details: expressed in E. coli; p-coumaroyl-, caffeoyl-, and feruloyl-CoA
Source text: Plasmids containing full-length red clover HDT coding regions (both HDT1 (SEQ ID NO: 1) and HDT2 (SEQ ID NO: 3)) were used as templates in PCR reactions with primers designed to introduce an […] restriction site at the start codons (ms886—SEQ ID NO: 13) and an XhoI site immediately following the stop codon (ms887—SEQ ID NO: 14) of each open reading frame. The resulting PCR products were digested with NcoI and XhoI and inserted into pET28a (Novagen, Madison, Wis.) digested with NcoI and XhoI. The insert is operably linked to the IPTG-inducible promoter contained in pET28. Each plasmid was sequenced to confirm correct sequence was generated.
Each pET28 derivative containing HDT coding regions (pET28-HDT1 and pET28-HDT2) or pET28 (as a negative control) were transformed, individually, into BL21(DE3)RIL Codon Plus E. coli (Agilent Technologies, Santa Clara, Calif.). […] The soluble fraction was isolated, divided into single use aliquots, flash frozen in liquid nitrogen and stored at −80° C. until ready to use. […]
The supernatant is analyzed for reaction products by HPLC. […]

| Molecule | HDT activity ([1]; HCT2 gene product produced in E. coli) | preference for p-coumaroyl-CoA and feruloyl-CoA donor substrates over caffeoyl-CoA ([1]; in-vitro) | transfer of trans-hydroxycinnamoyl moiety from CoA derivative to L-DOPA or L-tyrosine [2] |
| --- | --- | --- | --- |
| hydroxycinnamoyl-CoA:malate hydroxycinnamoyl transferase [HMT] | does not have HDT activity | five- to tenfold | – |
| B1 | – | – | capable of transferring a trans-hydroxycinnamoyl moiety |
| B2 | – | – | capable of transferring a trans-hydroxycinnamoyl moiety |
